The results in this text go back to US5567711A, “Indole-3-carbonyl and indole-3-sulfonyl derivatives as platelet activating factor antagonists” (Abbott Laboratories, priority 1995, dated 1996).

What is called Ki is the dissociation constant of the complex between target and ligand, obtained from inhibition or displacement. The inhibition is the percentage by which the read-out fell short of the control. Low values mean a response near the control, high ones a response far below the control.

Counter-ions that a name gives are not always drawn.

In the first experiment the target is PAF receptor (Oryctolagus cuniculus, UniProt G1TEI7). The experiment can be described thus: PAF receptor binding assay: inhibition of specific [^3 H]C18 -PAF binding to rabbit platelet membranes.
Sequence of PAF receptor (G1TEI7 1-342): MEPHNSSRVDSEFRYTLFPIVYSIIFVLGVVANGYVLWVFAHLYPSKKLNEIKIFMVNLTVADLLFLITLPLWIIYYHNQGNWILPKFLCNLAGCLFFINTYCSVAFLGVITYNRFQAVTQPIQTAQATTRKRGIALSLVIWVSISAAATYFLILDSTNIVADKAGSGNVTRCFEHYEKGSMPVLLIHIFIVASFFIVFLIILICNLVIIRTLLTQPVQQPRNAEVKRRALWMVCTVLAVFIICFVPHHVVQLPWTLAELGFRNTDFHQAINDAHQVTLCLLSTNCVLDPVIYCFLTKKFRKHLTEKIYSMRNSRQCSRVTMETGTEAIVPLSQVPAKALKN
Details: not given
In turn, `CCOCCn1cc(C(=O)N2CCC(Cn3c(C)nc4cnccc43)CC2)c2ccc(-c3ccc(F)cc3)cc21` [Example 8, 1-(2-ethoxyethyl)-6-(4-fluorophenyl)-3-{[4-(1H-2-methylimidazo[4,5-c]pyrid-1-yl)methylpiperidin-1-yl]carbonyl}indole hydrochloride] returned a Ki of 1.2 nM.
In turn, `CCOCCn1cc(C(=O)CN2CCC(n3c(C)nc4cnccc43)CC2)c2c(C(=O)OC)cccc21` [Example 23] returned a Ki of 5.2 nM.
Compound `CCOCCn1cc(C(=O)CN2CCC(n3c(C)nc4cnccc43)CC2)c2c(Cl)cccc21` [Example 25] registered a Ki of 10 nM.
Same read-out and setting: the figure for `CCOCCn1cc(C(=O)CN2CCC(n3c(C)nc4cnccc43)CC2)c2c(C)cccc21` [Example 28, 1-(2-ethoxyethyl)-4-methyl-3-{[4-(1H-2-methylimidazo[4.5-c]pyrid-1-yl)piperidin-1-yl]acetyl}indole] is 0.5 nM.

Still in this experiment, the particulars now being: @ 1.0 μM; rabbit platelet membranes; 0.6 nM [^3 H]C18 -PAF; 60 minutes at room temperature.
Consider `Cc1nc2cnccc2n1C1CCN(S(=O)(=O)c2c[nH]c3cc(-c4ccc(F)cc4)ccc23)CC1` [Example 13, 6-(4-fluorophenyl)-3-{[4-(1H-2-methylimidazo[4.5-c]pyrid-1-yl)piperidin-1-yl]sulfonyl}indole], for which testing at 1 µM gave an inhibition of 32%.

Still in this experiment, the particulars now being: rabbit platelet membranes; 0.6 nM [^3 H]C18 -PAF; 60 minutes at room temperature; pH 7.0; Ki by Cheng and Prusoff from IC50.
On to `CCOCCn1cc(C(=O)N2CCC(Cn3c(C)nc4cnccc43)CC2)c2c(Cl)cccc21` [Example 9, 1-(2-ethoxyethyl)-4-chloro-3-{[4-(1H-2-methylimidazo[4.5-c]pyrid-1-yl)methylpiperidin-1-yl]carbonyl}indole hydrochloride], for which affinity was put at a Ki of 29 nM.

The same experiment, now with this note: rabbit platelet membranes; 0.6 nM [^3 H]C18 -PAF; 60 minutes at room temperature; pH 7.0; Ki by Cheng and Prusoff from IC50; read-out: Ki.
For the compound `Cc1nc2cnccc2n1C1CCN(C(=O)c2cn(C(=O)N(C)C)c3cc(-c4ccc(F)cc4)ccc23)CC1` [Example 1, 6-(4-fluorophenyl)-3-{[4-(1H-2-methylimidazo[4.5-c]pyrid-1-yl)piperidin-1-yl]carbonyl)indole-1-carboxylic acid dimethyl amide hydrochloride], the Ki amounted to 3.3 nM.
`Cc1nc2cnccc2n1C1CCN(C(=O)c2c[nH]c3cc(-c4ccc(F)cc4)ccc23)CC1` [Example 2, 6-(4-fluorophenyl)-3-{[4-(1H-2-methylimidazo[4.5-c]pyrid-1-yl)piperidin-1-yl]carbonyl}indole hydrochloride]: the Ki was found to be 44 nM.
With `Cc1nc2cnccc2n1C1CCN(C(=O)c2c[nH]c3ccccc23)CC1` [Example 3, 3-{[4-(1H-2-methylimidazo[4,5-c]pyrid-1-yl)piperidin-1-yl]carbonyl}indole hydrochloride], the Ki worked out at 100 nM.
Same read-out and setting: the figure for `COC(=O)c1cccc2c1c(C(=O)N1CCC(n3c(C)nc4cnccc43)CC1)cn2C(=O)N(C)C` [Example 4, 3-{[4-(1H-2-methylimidazo[4.5-c]pyrid-1-yl)piperidin-1-yl]carbonyl}indole-1,4-dicarboxylic acid 1-dimethyl amide-4-methyl ester hydrochloride] is 140 nM.
Turning to `COC(=O)c1cccc2c1c(C(=O)N1CCC(Cn3c(C)nc4cnccc43)CC1)cn2C(=O)N(C)C` [Example 5, 1-N,N-dimethylcarbamoyl-4-methoxycarbonyl-3-{[4-(1H-2-methylimidazo[4.5-c]pyrid-1-yl)methylpiperidin-1-yl]carbonyl}indole-1,4-dicarboxylic acid 1-dimethyl amide-4-methyl ester hydrochloride], the Ki stood at 74 nM.
Same read-out and setting: the figure for `Cc1nc2cnccc2n1CC1CCN(C(=O)c2cn(C(=O)N(C)C)c3cc(-c4ccc(F)cc4)ccc23)CC1` [Example 6, 6-(4-fluorophenyl)-3-{[4-(1H-2-methylimidazo[4.5-c]pyrid-1-yl)methylpiperidin-1-yl]carbonyl}indole-1-carboxylic acid dimethyl amide hydrochloride] is 2.5 nM; for `Cc1nc2cnccc2n1CC1CCN(C(=O)c2cn(C(=O)N(C)C)c3cccc(Cl)c23)CC1` [Example 7, 4-chloro-3-{[4-(1H-2-methylimidazo[4.5-c]pyrid-1-yl)methylpiperidin-1-yl]carbonyl}indole-1-carboxylic acid dimethyl amide hydrochloride] it is 18 nM; for `COC(=O)c1cccc2c1c(C(=O)N1CCN(CCn3c(C)nc4cnccc43)CC1)cn2C(=O)N(C)C` [Example 10, 3-[{4-[(2-(1H-2-methylimidazo[4.5-c]pyrid-1-yl)ethyl]piperazin-1-yl}carbonyl]indole-1,4-dicarboxylic acid 1-dimethyl amide 4-methyl ester hydrochloride] it is 200 nM.
In the case of `Cc1nc2cnccc2n1CCN1CCN(C(=O)c2cn(C(=O)N(C)C)c3cc(-c4ccc(F)cc4)ccc23)CC1` [Example 11, 6-(4-fluorophenyl)-3-[{4-[(2-(1H-2-methylimidazo[4.5-c]pyrid-1-yl)ethyl]piperazin-1-yl}carbonyl]indole-1-carboxylic acid dimethyl amide hydrochloride], the Ki was found to be 30 nM.
For `Cc1nc2cnccc2n1C1CCN(S(=O)(=O)c2cn(C(=O)OC(C)(C)C)c3cc(-c4ccc(F)cc4)ccc23)CC1` [Example 12, 6-(4-fluorophenyl)-3-{[4-(1H-2-methylimidazo[4.5-c]pyrid-1-yl)piperidin-1-yl]sulfonyl}indole-1-carboxylic acid t-butyl ester], the Ki is 340 nM.
Same read-out and setting: the figure for `Cc1nc2cnccc2n1C1CCN(S(=O)(=O)c2cn(C(=O)N(C)C)c3cc(-c4ccc(F)cc4)ccc23)CC1` [Example 14, 6-(4-fluorophenyl)-3-{[4-(1H-2-methylimidazo[4.5-c]pyrid-1-yl)piperidin-1-yl]sulfonyl}indole-1-carboxylic acid dimethyl amide hydrochloride] is 120 nM; for `Cc1nc2cnccc2n1CC1CCN(S(=O)(=O)c2cn(C(=O)OC(C)(C)C)c3cc(-c4ccc(F)cc4)ccc23)CC1` [Example 15, 6-(4-fluorophenyl)-3-{[4-(1H-2-methylimidazo[4.5-c]pyrid-1-yl)methylpiperidin-1-yl]sulfonyl)indole-1-carboxylic acid t-butyl ester] it is 65 nM.
For `Cc1nc2cnccc2n1CC1CCN(S(=O)(=O)c2c[nH]c3cc(-c4ccc(F)cc4)ccc23)CC1` [Example 16, 6-(4-fluorophenyl)-3-{[4-(1H-2-methylimidazo[4.5-c]pyrid-1-yl)methylpiperidin-1-yl]sulfonyl}indole], the Ki stood at 250 nM.
Still for that read-out and setting: the figure for `Cc1nc2cnccc2n1CC1CCN(S(=O)(=O)c2cn(C(=O)N(C)C)c3cc(-c4ccc(F)cc4)ccc23)CC1` [Example 17, 6-(4-fluorophenyl)-3-{[4-(1H-2-methylimidazo[4.5-c]pyrid-1-yl)methylpiperidin-1-yl]sulfonyl}indole-1-carboxylic acid dimethyl amide] is 1.2 nM; for `Cc1nc2cnccc2n1CCN1CCN(S(=O)(=O)c2cn(C(=O)N(C)C)c3cc(-c4ccc(F)cc4)ccc23)CC1` [Example 18] it is 110 nM; for `Cc1nc2cnccc2n1C1CCN(CC(=O)c2c[nH]c3cc(-c4ccc(F)cc4)ccc23)CC1` [Example 19, 6-(4-fluorophenyl)-3-{[4-(1H-2-methylimidazo[4.5-c]pyrid-1-yl)piperidin-1-yl]acetyl}indole] it is 95 nM.
As for `Cc1nc2cnccc2n1C1CCN(CC(=O)c2cn(C(=O)N(C)C)c3cc(-c4ccc(F)cc4)ccc23)CC1` [Example 20], the Ki stood at 2.5 nM.
Regarding `COC(=O)c1cccc2[nH]cc(C(=O)CN3CCC(n4c(C)nc5cnccc54)CC3)c12` [Example 21, 3-{[4-(1H-2-methylimidazo[4.5-c]pyrid-1-yl)piperidin-1-yl]acetyl}indole-4-carboxylic acid methy ester], the Ki amounted to 14 nM.
On the same count and under the same terms, the figure for `COC(=O)c1cccc2c1c(C(=O)CN1CCC(n3c(C)nc4cnccc43)CC1)cn2C(=O)N(C)C` [Example 22, 3-{[4-(1H-2-methylimidazo[4.5-c]pyrid-1-yl)piperidin-1-yl]acetyl}indole-1,4-dicarboxylic acid 1-dimethyl amide 4-methyl ester] is 12 nM; for `Cc1nc2cnccc2n1C1CCN(CC(=O)c2c[nH]c3cccc(Cl)c23)CC1` [Example 24, 4-chloro-3-{[4-(1H-2-methylimidazo[4.5-c]pyrid-1-yl)piperidin-1-yl]acetyl}indole] it is 30 nM.
Turning to `Cc1nc2cnccc2n1C1CCN(CC(=O)c2cn(C(=O)N(C)C)c3cccc(Cl)c23)CC1` [Example 26, 4-chloro-3-{[4-(1H-2-methylimidazo[4.5-c]pyrid-1-yl)piperidin-1-yl]acetyl}indole-1-carboxylic acid dimethyl amide], the Ki came to 12 nM.
As to `Cc1cccc2[nH]cc(C(=O)CN3CCC(n4c(C)nc5cnccc54)CC3)c12` [Example 27, 4-methyl-3-{[4-(1H-2-methylimidazo[4.5-c]pyrid-1-yl)piperidin-1-yl]acetyl}indole], the inhibitory constant (Ki) was determined as 71 nM.
`Cc1cccc2c1c(C(=O)CN1CCC(n3c(C)nc4cnccc43)CC1)cn2C(=O)N(C)C` [Example 29, 4-methyl-3-{[4-(1H-2-methylimidazo[4.5:c]pyrid-1-yl)piperidin-1-yl]acetyl}indole-1-carboxylic acid dimethyl amide]: the Ki amounted to 2 nM.
On the same count and under the same terms, the figure for `COC(=O)c1cccc2c1c(C(=O)[C@H]1CC[C@H](Cn3c(C)nc4cnccc43)CC1)cn2C(=O)N(C)C` [Example 30, 3-{[trans-4-[(1H-2-methylimidazo[4.5-c]pyrid-1-yl)methylcyclohex-1-yl]carbonyl}indole-1,4-dicarboxylic acid 1-dimethyl amide 4-methyl ester hydrochloride] is 2.4 nM.
